Results from a melting point compilation (Tetko et al.; mined from patent text by program, amines drawn as free bases though some values may be those of a salt).

`Cc1c(NC(=O)c2ccc(OC[C@@H]3CCCO3)cc2)ccc2cc(CNCC3CC3)cnc12` showed a melting point of 156 to 158 °C.
`CN(C)c1ccc(-c2cc3nccnc3[nH]2)cc1CCC(=O)O` showed a melting point of 269 to 271 °C.
Work on `NC(=O)CCCCCCCCCCC(=O)O` yielded a melting point of 129 to 131 °C.
Work on `CCCCCCCCCC(=O)Nc1cc(C(=O)N2CCCCC2CO)c2cc[nH]c2c1` (stereo not given) yielded a melting point of 126 to 129 °C.
In the case of `CC(C)C[C@@H](CO)NC(=O)[C@H](Cc1c[nH]cn1)NC(=O)[C@H](Cc1cccc2ccccc12)NC(=O)OCC1c2ccccc2-c2ccccc21`, the melting point is reported as 118 to 120 °C.
`CCS(=O)c1ccc(-c2nc(-c3ccc(F)cc3)c(-c3ccncc3)[nH]2)cc1` (stereo not given) gave a melting point of 240 °C.
Work on `CCCc1c(COCCOc2ccc(-c3nnn[nH]3)cc2)ccc(C(C)=O)c1O` yielded a melting point of 170 to 172 °C.
With `COC(=O)CNc1cccc(C(F)(F)F)c1` the melting point was 60 to 63 °C.
With `CN(C)C=C(C#N)C(=O)c1cc(F)c(F)c(F)c1F` the melting point was 149 to 151 °C.
Work on `CC(=O)c1ccc(NS(C)(=O)=O)c(Oc2ccc(F)cc2)c1` yielded a melting point of 95 to 96 °C.
Compound `CCOC(OCC)c1cc(NC(c2ccccc2)(c2ccccc2)c2ccccc2)c(F)c(-c2ccc(Cl)c(OC)c2F)n1` has a melting point of 177 to 180 °C.
Compound `C=CCn1cc(Cn2ccnc2)c2cc(O)ccc21` has a melting point of 165 to 167 °C.
Work on `O=S(=O)(Nc1cccnc1Nc1ccccc1)c1ccc(O)cc1` yielded a melting point of 226 to 228 °C.
For `CC(C)(C)C(NC(=O)CCc1cccnc1)Nc1c(Nc2cccnc2Cl)c(=O)c1=O` (stereo not given), the melting point was 179 to 180 °C.
Work on `CCOc1nn(-c2ccc(C(F)(F)F)cn2)cc1CCCOc1nn(-c2ccccc2)cc1CC(=O)O` yielded a melting point of 117 to 118 °C.
Work on `CC1(C)CC(O)CC(C)(C)N1CC(O)c1ccccc1` (stereo not given) yielded a melting point of 123 °C.
`COc1ccc(Cn2c(-c3cc(OC)c(OC)c(OC)c3)nc3ccccc32)cc1` showed a melting point of 110 °C.
Compound `Cc1cc2ccc(CCCCCN3CCN(c4cccc(Cl)c4Cl)CC3)nc2[nH]c1=O` has a melting point of 157 to 158 °C.
For `CC1(C)CC(=O)C(S(=O)(=O)Cc2ccc(Cl)cc2)=C(O)C1`, the melting point was 111 to 113 °C.
With `Cn1c(=O)c2c(ncn2CCCC#N)n(C)c1=O` the melting point was 146 to 150 °C.
In the case of `CC(C(=O)O)c1ccc2cc(OCC=Cc3ccccc3)ccc2c1` (stereo not given), the melting point is reported as 175 to 177 °C.
In the case of `CCOC(=O)c1c(C)nsc1NC(=O)NC(C)C`, the melting point is reported as 175 to 176 °C.
`CCCS(=O)(=O)c1cc([C@H]2CC[C@H](c3cc(OC)c(OC)c(OC)c3)O2)cc(OC)c1O` (relative stereo) showed a melting point of 168 to 169 °C.
`Cc1cc(CBr)cc(CBr)c1` gave a melting point of 65 to 66 °C.
`CCOC(=O)C(CO)NC(=O)C(CC(=O)O)NC(=O)CCNC(=O)c1ccc(C(=N)N)cc1` (stereo not given) gave a melting point of 201 to 203 °C.
`C=C(C)CN(c1ncnc2c1ncn2C1OC(CO)C(O)C1O)C1CCCCC1` (stereo not given) showed a melting point of 110 to 112 °C.
Work on `COc1ccc(/C=C/C(=O)/C=C/C(=O)O)cc1` yielded a melting point of 104 °C.
For `CC(Cc1cccc(NC(N)=O)c1)NC=O` (stereo not given), the melting point was 133 to 136 °C.
Compound `COc1ccc2c(c1)CC(COS(=O)(=O)c1ccc(C)cc1)CC2` (stereo not given) has a melting point of 64 to 66 °C.
Work on `CCCc1cc(O)ccc1-c1noc2cc(O)ccc12` yielded a melting point of 189 to 191 °C.
Work on `CCCC(c1ccc(NC(C)=O)cc1)n1ccnc1` (stereo not given) yielded a melting point of 186 °C.
With `Cc1nc(O)c([N+](=O)[O-])c(N2CCc3ccccc3CC2)n1` the melting point was > 200 °C.
In the case of `Cc1cc(C(=O)O)ccc1Sc1ccc2c(c1)C(C)(C)CCC2(C)C`, the melting point is reported as 195 to 196 °C.
Work on `CCOC(=O)Cc1cnn(CC)c1O` yielded a melting point of 107 to 108 °C.
For `FC(F)(F)c1cnc(-n2ccc3ccncc32)c(Cl)c1`, the melting point was 88 to 90 °C.
In the case of `COc1cccc(N(C)C(=O)Oc2ccc(Cl)c(C(C)(C)C)c2)n1`, the melting point is reported as 54 to 56 °C.
With `CC(C)(C)OC(=O)NC(Cc1ccc(-c2cccc(CNCC(=O)c3ccccc3)c2)cc1)C(=O)O` (stereo not given) the melting point was 80 °C.
Compound `CC(=O)N(O)C(C)c1cc(C(C)(C)C)c(O)c(C(C)(C)C)c1` (stereo not given) has a melting point of 153 to 154 °C.
With `N#Cc1ccccc1N1CCC2(CC1)OCCO2` the melting point was 134 to 135 °C.
Compound `O=C1c2ccccc2COc2ccc(O)cc21` has a melting point of 165 to 166 °C.
